# Data taken from patent publication US12522598B2, “3-(2-(heteroaryl)-pyridin-4-yl)-5-(trifluoromethyl)-1,2,4-oxadiazole derivatives as HDAC6 inhibitors” (ORYZON GENOMICS, S.A., priority 2019, dated 2026).
# Counter-ions that a name gives are not always drawn.
# Biological target: T1, HDAC6 (Homo sapiens, UniProt Q9UBN7)
# T1 construct: purchased BPS Bioscience 50006
# T1 sequence (Q9UBN7 1-1215): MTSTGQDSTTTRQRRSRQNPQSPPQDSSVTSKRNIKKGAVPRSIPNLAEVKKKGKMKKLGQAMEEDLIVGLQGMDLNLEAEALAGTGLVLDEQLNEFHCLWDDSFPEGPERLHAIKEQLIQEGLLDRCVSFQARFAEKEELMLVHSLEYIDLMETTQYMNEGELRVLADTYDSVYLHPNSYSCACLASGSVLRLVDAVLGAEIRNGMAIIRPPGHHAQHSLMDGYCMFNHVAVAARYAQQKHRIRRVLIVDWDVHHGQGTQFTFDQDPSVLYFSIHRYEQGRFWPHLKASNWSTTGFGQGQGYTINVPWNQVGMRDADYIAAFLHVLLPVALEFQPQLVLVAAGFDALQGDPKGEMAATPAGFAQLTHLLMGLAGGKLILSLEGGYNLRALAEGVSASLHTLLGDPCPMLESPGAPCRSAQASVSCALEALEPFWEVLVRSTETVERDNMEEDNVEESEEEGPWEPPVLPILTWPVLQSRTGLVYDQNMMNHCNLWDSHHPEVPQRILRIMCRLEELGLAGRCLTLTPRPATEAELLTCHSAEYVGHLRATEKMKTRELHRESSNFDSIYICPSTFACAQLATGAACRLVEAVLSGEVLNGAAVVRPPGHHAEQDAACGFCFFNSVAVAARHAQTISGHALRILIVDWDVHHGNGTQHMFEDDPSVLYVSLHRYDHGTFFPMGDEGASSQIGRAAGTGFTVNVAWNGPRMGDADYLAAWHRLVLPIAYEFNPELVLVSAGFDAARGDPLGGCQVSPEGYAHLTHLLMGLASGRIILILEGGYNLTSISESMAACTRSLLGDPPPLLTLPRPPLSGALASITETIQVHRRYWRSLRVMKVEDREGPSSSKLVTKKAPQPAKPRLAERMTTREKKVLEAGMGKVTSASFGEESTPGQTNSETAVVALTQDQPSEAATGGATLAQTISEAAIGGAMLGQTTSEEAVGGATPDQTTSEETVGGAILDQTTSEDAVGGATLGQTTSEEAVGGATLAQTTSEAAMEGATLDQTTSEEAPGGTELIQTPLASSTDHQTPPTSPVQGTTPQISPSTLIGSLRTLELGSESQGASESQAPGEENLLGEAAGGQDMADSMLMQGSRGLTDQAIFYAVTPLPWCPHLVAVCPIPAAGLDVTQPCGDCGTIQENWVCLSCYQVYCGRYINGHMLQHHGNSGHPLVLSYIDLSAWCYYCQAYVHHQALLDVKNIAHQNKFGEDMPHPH
# Assay: HDAC6 enzyme inhibition assay (fluorimetric)
# Format: biochemical
# Settings: 3 hours preincubation with enzyme, fraction of positive control; for inhibition at 0.1 µM / HDAC6 % inh @ 0.1 μM: 0.1 μM test compound; for inhibition at 0.1 µM: read-out: HDAC6 % inh @ 0.1 μM; for inhibition at 0.3 µM / HDAC6 % inh @ 0.3 μM: 0.3 μM test compound; for inhibition at 0.3 µM: read-out: HDAC6 % inh @ 0.3 μM; for inhibition at 1 µM: read-out: HDAC6 % inh @ 1 μM
# Method: A fluorimetric assay was used to determine the biochemical activity of the inhibitors on HDAC6 in 96-Well Half Area Black Microplates (Corning #3686)+TopSeal-A Black Sealing Film (Perkin Elmer #6050173). Test compounds were dissolved in DMSO. Half-log serial dilutions of test compounds were prepared in DMSO and then diluted 1:10 in assay buffer (BPS Bioscience #50031).
# 2.5 μL of enzyme (BPS Bioscience #50006) was incubated with 2.5 μL of test compounds for 3 hours in assay buffer with 0.1 mg/mL Bovine Serum Albumin (Sigma-Aldrich #A7030) at 21° C. in 22.5 μL total volume. The enzymatic reaction was started with the addition of 2.5 μL of a fluorogenic acetylated peptide substrate (BPS Bioscience #50037). The final concentration of enzyme and substrate in the reaction were 8.8 nM and 9 μM, respectively. After 45 minutes of incubation at 37° C., the addition of 25 μL of a development solution (BPS
# Bioscience #50030) releases a fluorophore whose amount is proportional to the amount of the deacetylated product. Fluorescence intensity was measured after 15 minutes incubation at 21° C. with a Tecan Infinite F200 microplate reader (excitation 360 nm-emission 460 nm).
# The negative control (background) was represented by the reaction mix in the absence of the enzyme (with 0.1% DMSO), while the positive control of deacetylase activity was obtained in the absence of test compounds (with 0.1% DMSO) after background subtraction. Percentage of inhibition was calculated as a fraction of the positive control.
compound,measurement,setting,value
"COCCn1nc(-c2cc(-c3noc(C(F)(F)F)n3)ccn2)c2nccnc21 [Example 1g, 3-(2-(1-(2-Methoxyethyl)-1H-pyrazolo[3,4-b]pyrazin-3-yl)pyridin-4-yl)-5-(trifluoromethyl)-1,2,4-oxadiazole]",inhibition at 0.1 µM,,28%
same,inhibition at 0.3 µM,,56%
same,inhibition at 1 µM,1 μM test compound,80%
"Cn1c(C(=O)N2CCOCC2)cc2cc(-c3cc(-c4noc(C(F)(F)F)n4)ccn3)ncc21 [Example 3, (1-Methyl-5-(4-(5-(trifluoromethyl)-1,2,4-oxadiazol-3-yl)pyridin-2yl)-1H-pyrrolo[2,3-c]pyridin-2-yl)(morpholino)methanone mesylate]",inhibition at 0.1 µM,,59%
same,inhibition at 0.3 µM,,84%
same,inhibition at 1 µM,1 μM test compound,93%
"CN(CCO)C(=O)c1cc2cc(-c3cc(-c4noc(C(F)(F)F)n4)ccn3)ncc2n1C [Example 1b, N-(2-Hydroxyethyl)-N,1-dimethyl-5-(4-(5-(trifluoromethyl)-1,2,4-oxadiazol-3-yl)pyridin-2-yl)-1H-pyrrolo[2,3-c]pyridine-2-carboxamide]",inhibition at 0.1 µM,,72%
same,inhibition at 0.3 µM,,88%
same,inhibition at 1 µM,1 μM test compound,95%
"COCCN(C)C(=O)c1cc2cc(-c3cc(-c4noc(C(F)(F)F)n4)ccn3)ncc2n1C [Example 2a, N-(2-Methoxyethyl)-N,1-dimethyl-5-(4-(5-(trifluoromethyl)-1,2,4-oxadiazol-3-yl)pyridin-2-yl)-1H-pyrrolo[2,3-c]pyridine-2-carboxamide hydrochloride]",inhibition at 0.1 µM,,66%
same,inhibition at 0.3 µM,,89%
same,inhibition at 1 µM,1 μM test compound,97%
"FC(F)(F)c1nc(-c2ccnc(-c3nn(CC4CCOCC4)c4cccnc34)c2)no1 [Example 1f, 3-(2-(1-((Tetrahydro-2H-pyran-4-yl)methyl)-1H-pyrazolo[4,3-b]pyridin-3-yl)pyridin-4-yl)-5-(trifluoromethyl)-1,2,4-oxadiazole]",inhibition at 0.1 µM,,54%
same,inhibition at 0.3 µM,,81%
same,inhibition at 1 µM,1 μM test compound,94%
"Cn1c(C(=O)N2CCOCC2)cc2cc(-c3cc(-c4noc(C(F)(F)F)n4)ccn3)ncc21 [Example 1, (1-Methyl-5-(4-(5-(trifluoromethyl)-1,2,4-oxadiazol-3-yl)pyridin-2-yl)-1H-pyrrolo[2,3-c]pyridin-2-yl)(morpholino)methanone]",HDAC6 % inh @ 0.1 μM,,59%
same,HDAC6 % inh @ 0.3 μM,,87%
"COCCCn1nc(-c2cc(-c3noc(C(F)(F)F)n3)ccn2)c2ncccc21 [Example 1e, 3-(2-(1-(3-Methoxypropyl)-1H-pyrazolo[4,3-b]pyridin-3-yl)pyridin-4-yl)-5-(trifluoromethyl)-1,2,4-oxadiazole]",inhibition at 0.1 µM,,68%
same,inhibition at 0.3 µM,,88%
same,inhibition at 1 µM,1 μM test compound,95%
"CC1(C)C2CCC1(CS(=O)(=O)O)C(=O)C2.Cn1c(C(=O)N2CC[C@H](O)C2)cc2cc(-c3cc(-c4noc(C(F)(F)F)n4)ccn3)ncc21 [Example 6, (S)-(3-Hydroxypyrrolidin-1-yl)(1-methyl-5-(4-(5-(trifluoromethyl)-1,2,4-oxadiazol-3-yl)pyridin-2-yl)-1H-pyrrolo[2,3-c]pyridin-2-yl)methanone (+) Camphorsulfonate Salt]",HDAC6 % inh @ 0.1 μM,,61%
same,HDAC6 % inh @ 0.3 μM,,81%
same,HDAC6 % inh @ 1 μM,1 μM test compound,91%
"CN(CC1CC1)C(=O)c1cc2cc(-c3cc(-c4noc(C(F)(F)F)n4)ccn3)ncc2n1C [Example 2, N-(Cyclopropylmethyl)-N,1-dimethyl-5-(4-(5-(trifluoromethyl)-1,2,4-oxadiazol-3-yl)pyridin-2-yl)-1H-pyrrolo[2,3-c]pyridine-2-carboxamide hydrochloride]",inhibition at 0.1 µM,,75%
same,inhibition at 0.3 µM,,92%
same,inhibition at 1 µM,1 μM test compound,96%
"CN1CCC(CN(C)C(=O)c2cc3cc(-c4cc(-c5noc(C(F)(F)F)n5)ccn4)ncc3n2C)CC1 [Example 1c, N,1-Dimethyl-N-((l-methylpiperidin-4-yl)methyl)-5-(4-(5-(trifluoromethyl)-1,2,4-oxadiazol-3-yl)pyridin-2-yl)-1H-pyrrolo[2,3-c]pyridine-2-carboxamide]",inhibition at 0.1 µM,,85%
same,inhibition at 0.3 µM,,94%
same,inhibition at 1 µM,1 μM test compound,98%
"Cn1c(C(=O)N2CC[C@H](O)C2)cc2cc(-c3cc(-c4noc(C(F)(F)F)n4)ccn3)ncc21 [Example 2h, (S)-(3-Hydroxypyrrolidin-1-yl)(1-methyl-5-(4-(5-(trifluoromethyl)-1,2,4-oxadiazol-3-yl)pyridin-2-yl)-1H-pyrrolo[2,3-c]pyridin-2-yl)methanone hydrochloride]",inhibition at 0.1 µM,,65%
same,inhibition at 0.3 µM,,80%
same,inhibition at 1 µM,1 μM test compound,94%
"C[C@H]1COCCN1C(=O)c1cc2cc(-c3cc(-c4noc(C(F)(F)F)n4)ccn3)ncc2n1C [Example 2d, (S)-(1-Methyl-5-(4-(5-(trifluoromethyl)-1,2,4-oxadiazol-3-yl)pyridin-2-yl)-1H-pyrrolo[2,3-c]pyridin-2-yl)(3-methylmorpholino)methanone hydrochloride]",inhibition at 0.1 µM,,64%
same,inhibition at 0.3 µM,,86%
same,inhibition at 1 µM,1 μM test compound,96%
"Cn1c(C(=O)N2CCNCC2)cc2cc(-c3cc(-c4noc(C(F)(F)F)n4)ccn3)ncc21 [Example 4, (1-Methyl-5-(4-(5-(trifluoromethyl)-1,2,4-oxadiazol-3-yl)pyridin-2-yl)-1H-pyrrolo[2,3-c]pyridin-2-yl)(piperazin-1-yl)methanone]",inhibition at 0.1 µM,,69%
same,inhibition at 0.3 µM,,86%
same,inhibition at 1 µM,1 μM test compound,95%
"Cn1c(C(=O)N(CCO)CCO)cc2cc(-c3cc(-c4noc(C(F)(F)F)n4)ccn3)ncc21 [Example 1d, N,N-Bis(2-hydroxyethyl)-1-methyl-5-(4-(5-(trifluoromethyl)-1,2,4-oxadiazol-3-yl)pyridin-2-yl)-1H-pyrrolo[2,3-c]pyridine-2-carboxamide]",inhibition at 0.1 µM,,79%
same,inhibition at 0.3 µM,,91%
same,inhibition at 1 µM,1 μM test compound,96%
"Cn1c(C(=O)N2CC[C@@H](O)C2)cc2cc(-c3cc(-c4noc(C(F)(F)F)n4)ccn3)ncc21 [Example 2g, (R)-(3-Hydroxypyrrolidin-1-yl)(1-methyl-5-(4-(5-(trifluoromethyl)-1,2,4-oxadiazol-3-yl)pyridin-2-yl)-1H-pyrrolo[2,3-c]pyridin-2-yl)methanone hydrochloride]",inhibition at 0.1 µM,,78%
same,inhibition at 0.3 µM,,86%
same,inhibition at 1 µM,1 μM test compound,97%
"Cn1c(C(=O)N2CCC(O)C2)cc2cc(-c3cc(-c4noc(C(F)(F)F)n4)ccn3)ncc21 (centres unmarked) [Example 2e, (3-Hydroxypyrrolidin-1-yl)(1-methyl-5-(4-(5-(trifluoromethyl)-1,2,4-oxadiazol-3-yl)pyridin-2-yl)-1H-pyrrolo[2,3-c]pyridin-2-yl)methanone hydrochloride]",inhibition at 0.1 µM,,78%
same,inhibition at 0.3 µM,,92%
same,inhibition at 1 µM,1 μM test compound,97%
"COCCN(CCOC)C(=O)c1cc2cc(-c3cc(-c4noc(C(F)(F)F)n4)ccn3)ncc2n1C [Example 2c, N,N-Bis(2-methoxyethyl)-1-methyl-5-(4-(5-(trifluoromethyl)-1,2,4-oxadiazol-3-yl)pyridin-2-yl)-1H-pyrrolo[2,3-c]pyridine-2-carboxamide hydrochloride]",inhibition at 0.1 µM,,71%
same,inhibition at 0.3 µM,,91%
same,inhibition at 1 µM,1 μM test compound,97%
